For series [1], the system named is L. infantum intracellular amastigotes. The arrangement: method as in PMID 24913171. The note with it: prototype/reference compounds, cited from earlier work.
Series [2] addresses T1, recombinant Leishmania cysteine protease LmCPB2.8ΔCTE (CPB) (Leishmania mexicana, UniProt P36400).
T1 construct: The ORF that codes for the Leishmania mexicana CPB, lacking the C terminal extension (CPB2.8ΔCTE); made in house; host or cells: Pichia pastoris X-33
Conditions: read-out: IC50 - Inhibition of CPB (rCPB2.8); prototype/reference compounds; cited from earlier work.

Series [3] relates to murine peritoneal macrophages. Set-up: method as in PMID 24913171. The note with it: prototype/reference compounds; cited from earlier work.
The test system of series [4] is L. infantum. Set-up: method as in PMID 28866421. The note with it: L. infantum-infected hamsters, cited from earlier work.
Series [5] can be described thus: Quantification of nitrite by the Griess reaction (NO release). Conditions: compounds at 10^-4 M, 5 mM of L-Cys (1:50), 1 h, 37°C. The protocol:
The levels of nitrite resulting from the oxidation of NO in the aqueous medium were quantified through the Griess reaction after incubation with an excess of L-cysteine (1:50) according to previously published methods. The experiments were performed in triplicate and repeated three times on different days. […] The results were expressed as a percentage of nitrite (% NO2^−; mol/mol). Statistical analysis was carried out using ANOVA followed by Tukey’s Multiple Comparison Test at a significance level of p < 0.05.
The ability of all synthesized compounds (4a-x) and (14a-g) to release NO was evaluated by indirect determination of NO2^− production. The compounds at 10^−4 M were incubated for 1 h at 37°C in the presence of L-cysteine (1:50) and the produced NO2^− was determined through Griess reaction (Table 1).

For series [6], the target named is T1, recombinant Leishmania cysteine protease LmCPB2.8ΔCTE (CPB). As to the kind of experiment: Enzymatic inhibition of recombinant CPB (Z-FR-AMC substrate). Type of series: biochemical. The protocol: The concentration of the active recombinant CPB expressed in Pichia pastoris supernatant was determined by active site titration with N-(trans-Epoxysuccinyl)-L-leucine 4-guanidinobutylamide E-64 (CalBiochem) that was found 1 μM. The active enzyme represented about 80% of the total recombinant enzyme.
Compounds were dissolved in DMSO to a final concentration of 20 μM. The assays were performed in dark 96 well-plates, containing 200 μL of 100 mM sodium acetate buffer (pH 5.5), 200 mM NaCl, 0.01% Triton-X100, 2 nM enzyme, various concentrations of inhibitor, and 5 μM of the substrate Z-FR-AMC (Calbiochem). The final concentration of DMSO was 1% (v/v). The enzyme was pre-incubated at 30°C for 2 minutes before the inhibitor was added, waited 2 minutes and after this incubation, the reaction was started by the addition of the substrate, Z-FR-AMC. The fluorescence was monitored at 380 nm excitation and 460 nm emission filters for 2 minutes at 30°C in an Infinite 200 PRO microplate reader (Tecan, Männedorf, Switzerland). The residual activity was measured by the ratio between enzyme + substrate and enzyme + inhibitor + substrate. […] Results were expressed in mean ± standard deviation of two independent replicates using Bioestat Software.

The test system of series [7] is L. infantum intracellular amastigotes. Put plainly: Anti-amastigote activity in infected murine peritoneal macrophages. Type of series: cell-based. Conditions: Leishmania infantum, Peritoneal macrophage, 24 h, read-out: EC50 - Effective Concentration that kills 50% of L. infantum amastigote forms. The protocol:
The antileishmanial activity against L. infantum intracellular amastigotes, according to the following methodology. […] Were used infected macrophages as negative control and amphotericin B as the positive control.
After incubation, cells were fixed with methanol and Giemsa stained. The effective concentration to 50% amastigotes death (EC) was obtained by counting 100 macrophages in duplicate, in two independent experiments. The values were obtained by non-linear regression on Bioestat® software, and results were expressed in mean ± standard deviation.

Series [8] is described as follows: Toxicity for mice: plasma biochemical markers. Conditions: for plasma creatinine: any group; for plasma creatinine / plasma total bilirubin levels: end of treatment; for plasma levels of AST, ALP, ALT, and creatinine: treated vs healthy groups; for plasma total bilirubin levels: treated vs infected untreated mice. It counts as in vivo, BALB/c mice. The protocol:
Toxicity for mice assays. The blood was collected in heparinized tubes and immediately centrifuged at 700×g for 10 min at 25°C to obtain plasma. Plasma levels of aspartate (AST), and alanine (ALT) transferases, alkaline phosphatase (ALP), creatinine, urea, and total bilirubin were determined at the end of treatment using commercial kits (Labtest Diagnóstica S.A., Brazil). The assays were performed according to Velasquez et al. (2017) and the data are expressed as average ± SEM. The statistical differences between groups were evaluated using a one-way analysis of variance, followed by the Student-Newman-Keuls multiple comparison test using GraphPad Prism software. Differences were considered significant when P values were […].

In series [9] the test system is L. infantum. Put plainly: In vivo parasite load (LDU index) in L. infantum-infected BALB/c mice. Conditions: oral, twice a day for five days; for reduction of parasite burden in liver and spleen: 7.7 mg/kg/day. The protocol:
To evaluate the in vivo antileishmanial efficacy of compound 4f, male BALB/c mice, 20 ± 4 g, 6 weeks-old (CEMIB-UNICAMP) were intraperitoneally inoculated with 100 μL (1x10^8 parasites) of infective promastigotes of L. infantum (MHOM/MA/67/ITMAP-263) at the stationary phase. After nine days post-infection, the animals were treated by oral gavage (100 μL per dose) twice daily for 5 days with a 12h interval between doses according to the dosages described below, and euthanized. […] Work solutions were daily prepared in PBS. Negative controls correspond to infected and non-treated mice. As a positive control, a group of mice received 7.7 mg/kg/day of miltefosine, and a group of uninfected and untreated mice (healthy animals) was used for the analysis. The compound and miltefosine were orally administered twice a day for five days. After treatment, the animals were euthanized and the treatment efficacy was assessed by measuring the parasite burden of the infected animals using the LDU index.
LDU index. After the euthanasia, mice´s liver and spleen were collected for parasite quantification. Tissues impression onto microscopy slides were made, followed by Giemsa-staining and examining under optical microscopy. The corresponding number of amastigotes per 1,000 nucleated cells/organ weight was expressed as LDU index according to Stauber (1958), Sousa-Batista (2018), and Kwofie (2019).

Where “and” joins values, the source holds several entries; their conditions need not be identical. Identical values can stand only once. Like-named read-outs stand apart in the source and are kept apart here.

T1 sequence (P36400 126-341, stated change not applied): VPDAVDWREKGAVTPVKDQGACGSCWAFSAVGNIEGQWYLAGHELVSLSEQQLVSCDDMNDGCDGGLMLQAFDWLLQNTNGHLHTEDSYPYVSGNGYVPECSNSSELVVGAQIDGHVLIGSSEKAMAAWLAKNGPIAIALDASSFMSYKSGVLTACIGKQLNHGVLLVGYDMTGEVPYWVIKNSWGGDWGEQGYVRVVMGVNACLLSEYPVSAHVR

In general, IC50 refers to the concentration needed to halve the response being measured. With `O=C(N/N=C/c1ccc(Oc2no[n+]([O-])c2S(=O)(=O)c2ccccc2)cc1)c1cccc(O)c1` [Lapdesf14e, (E)-4-(4-((2-(3-hydroxybenzoyl)hydrazono)methyl)phenoxy)-3-(phenylsulfonyl)-1,2,5-oxadiazole 2-oxide], the “SI - Selective Index (CC50/EC50)” value in series [1] was 66.4. For the same compound, the EC50 in series [1] (read-out: EC50 L. infantum amastigote forms) is 3.1 ± 0.1 µM. Also, the IC50 in series [2] was 3.1 ± 0.4 µM. Also, the CC50 in series [3] was 208.3 ± 0.2 µM. Moreover, the “decrease of parasite load” value with L. infantum [4] (15 days, intraperitoneal) is reported as 50%. In the series with L. infantum [4], the “reduction of parasite load in the liver” value is on record as 54.2%, the “reduction of parasite load in the spleen” value is listed as 49.9% and the toxic effects result is given as “without toxic effects”. In [5], the “% NO2- (mol/mol)” value is 26% and 26.0 ± 1.6 %.
One may read the melting point as the temperature, or range, at which the solid turns liquid. With `NC(=O)N/N=C/c1ccc(OCc2no[n+]([O-])c2C(N)=O)cc1` [Compound 4n, (E)-3-carbamoyl-4-((4-((2-carbamoylhydrazono)methyl)phenoxy)methyl)-1,2,5-oxadiazole 2-oxide], the melting point is 228 to 230 °C. For the same compound, in series [6], the IC50 amounted to 13.7 ± 1.8 µM. Also, the EC50 in series [7] was more than 10 µM. In addition, the “% NO2- (mol/mol)” value in series [5] amounted to 12.0 ± 1.4 %.
Compound `NC(=O)c1c(COc2ccc(/C=N/NC(=O)c3ccc(O)cc3)cc2)no[n+]1[O-]` [Compound 4i, (E)-3-carbamoyl-4-((4-((2-(4-hydroxybenzoyl)hydrazono)methyl)phenoxy)methyl)-1,2,5-oxadiazole 2-oxide] had a melting point of 201 to 203 °C. The IC50 in [6] is 5.7 ± 0.4 µM. Also, the EC50 in [7] was more than 10 µM. Also, the “% NO2- (mol/mol)” value in series [5] was 12.3 ± 0.9 %.
Take `NC(=O)N/N=C/c1ccc(Oc2no[n+]([O-])c2-c2ccccc2)cc1` [Compound 4f, (E)-4-(4-((2-carbamoylhydrazono)methyl)phenoxy)-3-phenyl-1,2,5-oxadiazole 2-oxide]: in series [8], the plasma creatinine entry was “no alterations”; the “plasma levels of AST, ALP, ALT, and creatinine” value is on record as “similar”; the “plasma total bilirubin levels” value was “no significant alterations”. Besides, the “side effect (biochemical markers)” value in series [8] (up to the highest dose 7.7 mg/kg/day) is reported as “without causing any evident side effect”. In addition, the concentration for half-maximal inhibition (IC50) in [6] is 4.5 ± 0.1 µM. Further, in [7], the EC50 came out at 3.6 ± 0.1 µM. Moreover, the parasite reduction in the series on L. infantum [9] (2.56 mg/kg/day) is listed as 77%. For the same compound, the “reduction of parasite burden in liver and spleen” value with L. infantum [9] is 90% and ~ 90%. Also, the “% NO2- (mol/mol)” value in [5] came out at 9.1 ± 0.7 %.
As for `CCCCCCCCCCCCCCCCOP(=O)([O-])OCC[N+](C)(C)C` [miltefosine, reference compound], in [8], the plasma creatinine entry is given as “no alterations”; the “plasma levels of AST, ALP, ALT, and creatinine” value is “similar”; the “plasma total bilirubin levels” value is reported as “no significant alterations”. The “reduction of parasite burden in liver and spleen” value in the series with L. infantum [9] is listed as ~ 90%.
Take `NC(=O)c1c(COc2ccc(/C=N/NC(=O)c3ccc(N)cc3)cc2)no[n+]1[O-]` [Compound 4j, (E)-4-((4-((2-(4-aminobenzoyl)hydrazono)methyl)phenoxy)methyl)-3-carbamoyl-1,2,5-oxadiazole 2-oxide]: the melting point was 209 to 214 °C. In series [6], the IC50 turned out to be 11.1 ± 0.1 µM. Also, the EC50 in series [7] was more than 10 µM. In series [5], the “% NO2- (mol/mol)” value turned out to be 12.7 ± 0.8 %.
For `NC(=O)c1c(COc2ccc(/C=N/NC(N)=S)cc2)no[n+]1[O-]` [Compound 4o, (E)-4-((4-((2-carbamothioylhydrazono)methyl)phenoxy)methyl)-3-carbamoyl-1,2,5-oxadiazole 2-oxide], in that order: 232 to 234 °C, more than 20 µM, more than 10 µM and 11.8 ± 1.2 %.

The record behind these values is paper PMC8559926, “Design, synthesis and biological evaluation of N-oxide derivatives with potent in vivo antileishmanial activity” (PLoS ONE, 2021).
